Drawing on publication PMC6691788, “Design and synthesis of phthalazine-based compounds as potent anticancer agents with potential antiangiogenic activity via VEGFR-2 inhibition” (Journal of Enzyme Inhibition and Medicinal Chemistry, 2019), this text covers activity for 2 compounds.

Holding throughout (assay): NCI 60 cell panel SRB screen
Test [1] has as its system OVCAR-3. The test is classed as cell-based. The note with it: Homo sapiens; OVCAR-3, single dose 10 μM; read-out: percent cell growth promotion.
Test [2] deals with OVCAR-4. The test is classed as cell-based. Particulars: Homo sapiens; OVCAR-4, single dose 10 μM; read-out: percent cell growth promotion.
For test [3], the system named is LOX IMVI. It counts as cell-based. Particulars: Homo sapiens, read-out: percent cell growth promotion.
The subject of test [4] is MDA-MB-468. The test is classed as cell-based. Particulars: Homo sapiens, MDA-MB-468; MDA-MBA-468, single dose 10 μM; read-out: percent cell growth promotion. As for the experimental part:
The human tumor cell lines of the cancer-screening panel were grown in RPMI 1640 medium containing 5% fetal bovine serum and […] L-glutamine. For a typical screening experiment, cells are inoculated into 96 well microtiter plates in 100 ml at plating densities ranging from 5000 to 40,000 cells/well depending on the doubling time of individual cell lines. After cell inoculation, the microtiter plates are incubated at 37 °C, 5% CO2, 95% air and 100%
relative humidity for 24 h prior to addition of experimental drugs. After 24 h, two plates of each cell line are fixed in situ with TCA, to represent a measurement of the cell population for each cell line at the time of drug addition (Tz). Experimental drugs are dissolved in dimethyl sulfoxide at 400-fold the desired final maximum test concentration and stored frozen prior to use. At the time of drug addition, an aliquot of frozen concentrate is thawed and diluted to twice the desired final maximum test concentration with complete medium containing […] Gentamicin. Additional four, 10-fold or ½log serial dilutions are made to provide a total of five drug concentrations plus control. Aliquots of […] of these different drug dilutions are added to the appropriate microtiter wells already containing 100 ml of medium, resulting in the required final drug concentrations. Following drug addition, the plates are incubated for an additional 48 h at 37 °C, 5% CO2, 95% air, and 100% relative humidity. For adherent cells, the assay is terminated by the addition of cold TCA. Cells are fixed in situ by the gentle addition of […] of cold 50% (w/v) TCA (final concentration,10% TCA) and incubated for 60 min at 4 °C. The supernatant is discarded, and the plates are washed five times with tap water and air dried. Sulforhodamine B (SRB) solution (100 ml) at 0.4% (w/v) in 1% acetic acid is added to each well, and plates are incubated for 10 min at room temperature. After staining, unbound dye is removed by washing five times with 1% acetic acid and the plates are air dried. Bound stain is subsequently dissolved with 10 μM trizma base, and the absorbance is read on an automated plate reader at a wavelength of 515 nm. For suspension cells, the methodology is the same except that the assay is terminated by fixing settled cells at the bottom of the wells by gently adding […] of 80% TCA (final concentration, 16% TCA).
Using the seven absorbance measurements [time zero, (Tz), control growth, (C), and test growth in the presence of drug at the five concentration levels (Ti)], the percentage growth is calculated at each of the drug concentrations levels. Percentage growth inhibition is calculated as: [(Ti -Tz)/(C - Tz)] x 100 for concentrations for which Ti>/ ¼ Tz and [(Ti -Tz) / Tz] x100 for concentrations for which Ti <Tz.
Three dose response parameters are calculated for each experimental agent. Growth inhibition of 50% (GI50) is calculated from [(Ti -Tz)/(C - Tz)] x 100 =50, which is the drug concentration resulting in a 50% reduction in the net protein increase (as measured by SRB staining) in control cells during the drug incubation. The drug concentration resulting in total growth inhibition (TGI) is calculated from Ti ¼ Tz. The LC50 (concentration of drug resulting in a 50% reduction in the measured protein at the end of the drug treatment as compared to that at the beginning) indicating a net loss of cells following treatment is calculated from [(Ti - Tz) / Tz] x100 = -50. Values are calculated for each of these three parameters if the level of activity is reached; however, if the effect is not reached or is exceeded, the value for that parameter is expressed as greater or less than the maximum or minimum concentration tested.

Test [5] relates to NCI-H460. It counts as cell-based. Particulars: Homo sapiens; NCI-H460, single dose 10 μM; read-out: percent cell growth promotion.
Test [6] relates to TK-10. The test is classed as cell-based, human. Particulars: Homo sapiens; TK-10, single dose 10 μM; read-out: percent cell growth promotion.
In test [7] the test system is HT29. The test is classed as cell-based. Particulars: Homo sapiens, HT-29; HT29, single dose 10 μM; read-out: percent cell growth promotion.
In test [8] the test system is OVCAR-5. It counts as cell-based. The note with it: Homo sapiens; OVCAR-5, single dose 10 μM; read-out: percent cell growth promotion.
For test [9], the system named is T-47D. The test is classed as cell-based. Particulars: Homo sapiens, T47D, read-out: percent cell growth promotion.
Test [10] deals with KM12. It counts as cell-based. The note with it: Homo sapiens; KM12, single dose 10 μM; read-out: percent cell growth promotion.
In test [11] the test system is SNB-75. The test is classed as cell-based. The note with it: Homo sapiens; SNB-75, single dose 10 μM; read-out: percent cell growth promotion.
The subject of test [12] is HCT-116. The test is classed as cell-based. Particulars: Homo sapiens; HCT-116, single dose 10 μM; read-out: percent cell growth promotion.
Test [13] relates to MDA-MB 231/ATCC. It counts as cell-based. Particulars: Homo sapiens, MDA-MB-231, read-out: percent cell growth promotion.
Test [14] has as its system CCRF-CEM. The test is classed as cell-based, human. The note with it: Homo sapiens, single dose 10 μM, read-out: percent cell growth promotion.
Test [15] relates to SK-MEL-5. The test is classed as cell-based. Particulars: Homo sapiens, SK-MEL-5, read-out: percent cell growth promotion.
The test system of test [16] is UACC-62. The test is classed as cell-based. Particulars: Homo sapiens, UACC-62, read-out: percent cell growth promotion.
Test [17] concerns HS 578T. It counts as cell-based. The note with it: Homo sapiens, Hs-578T, read-out: percent cell growth promotion.
For test [18], the system named is IGROV1. It counts as cell-based. The note with it: Homo sapiens, IGROV-1; IGROV1, single dose 10 μM; read-out: percent cell growth promotion.

`Cc1nnc(N2CCN(c3ccccn3)CC2)c2ccccc12` [Compound 8i, 1-Methyl-4–(4-(pyridin-2-yl)piperazin-1-yl)phthalazine]: the activity at 10 µM in test [1] came to 114%; in test [2] it was 100%; in [3] it was 102%; in test [4], 87.4%; in test [5] it was 103%; in test [6], 83.2%. Moreover, the activity at 10 µM in test [7] came to 91.2%; in [8], 98.2%; in test [9], 96%; in test [10] it was 110%; in test [11] it was 114%; in test [12], 98.1%. Moreover, the activity at 10 µM turned out to be 117% in test [13]; 102% in test [14]; 97% in test [15]; 101% in test [16]; 109% in test [17]; 112% in test [18].

As to `O=C(Nc1ccc(Nc2nncc3ccccc23)cc1)c1ccc(Cl)cc1` [Compound 5b, 4-Chloro-N-(4-(phthalazin-1-ylamino)phenyl)benzamide], the activity at 10 µM in [1] was determined as 101%; in test [2], 106%; in [3], 99.9%; in [4], 101%; in [5] it was 101%; in [6], 116%. The activity at 10 µM was determined as 104% in test [7]; 97.6% in test [9]; 103% in test [10]; 98.1% in test [11]; 100% in [12]; 93.3% in test [13]. Moreover, the activity at 10 µM in [14] was 103%; in test [15] it was 99.8%; in test [16] it was 89.8%; in test [17], 105%; in [18], 102%.
